Assay results from publication PMC4965013, “Open Source Drug Discovery with the Malaria Box Compound Collection for Neglected Diseases and Beyond” (PLoS Pathogens, 2016).

Columns and labels:
[1] = system: T. cruzi Tulahuen; settings: ref [84]; read-out: Trypanosoma cruzi Tulahuen intracellular amastigotes in MRC5 cell line EC50; cited from earlier work
[2] = system: P. falciparum; experiment: EC50 listed in S2 Table Metabolomics (used to set the concentration tested); format: cell-based; settings: Plasmodium falciparum; EC50 used for Factor_XEC50 in metabolomics; read-out: EC50_nM
[3] = system: Atg8-Atg3; set-up: method as in ref [38] (a number printed in a supplementary file, which may have a reference list of its own: not looked up in the article's list); settings: ref [38]; cited from earlier work
[4] = system: P. falciparum 3D7 trophozoites; experiment: Metabolomic fingerprint profiling LC-MS; format: cell-based, Plasmodium falciparum; set-up: UDP-D-glucose / ADP-D-glucose: unit not given here; settings: for Acetyllysine / N-acetyl-L-ornithine / N-carbamoyl-L-aspartate / NADPH / dAMP / dCMP / dTDP / dTMP / dTTP / dihydroorotate / orotate / DLH / DLS/SDL/SID / PD / PEE / PVNF / 3-phosphoglycerate / ADP-D-glucose / ATP / CDP / D-sedoheptulose-1/7-phosphate / FAD / GMP / NAD+ / NADP+ / Octoluse Bisphosphate / Pyroglutamic acid / UDP-D-glucose / UDP-D-glucuronate / UDP-N-acetyl-glucosamine / UDP / UMP / UTP / a-ketoglutarate / citrate/isocitrate / cytidine / dATP / dGMP/AMP / fumarate / glucose-1/6-phosphate / glycerate / guanine / guanosine / hypoxanthine / indole / inosine / nicotinate / ornithine / phosphoenolpyruvate / pyruvate / ribose-phosphate / sarcosine/alanine / sn-glycerol-3-phosphate / succinate/methylmalonic acid / uridine / xanthosine: S2 Table Metabolomics; for Acetyllysine: metabolite Acetyllysine; for N-acetyl-L-ornithine: metabolite N-acetyl-L-ornithine; for N-carbamoyl-L-aspartate: metabolite N-carbamoyl-L-aspartate; for NADPH: metabolite NADPH; for dAMP: metabolite dAMP; for dCMP: metabolite dCMP; for dTDP: metabolite dTDP; for dTMP: metabolite dTMP; for dTTP: metabolite dTTP; for dihydroorotate: metabolite dihydroorotate; for orotate: metabolite orotate; for DLH: peptide DLH; for DLS/SDL/SID: peptide DLS/SDL/SID; for PD: peptide PD; for PEE: peptide PEE; for PVNF: peptide PVNF; for 3-phosphoglycerate: metabolite 3-phosphoglycerate; for ADP-D-glucose: metabolite ADP-D-glucose; for ATP: metabolite ATP; for CDP: metabolite CDP; for CDP / D-sedoheptulose-1/7-phosphate / GMP / Octoluse Bisphosphate / UDP / UMP / UTP / citrate/isocitrate / dGMP/AMP / fumarate / glucose-1/6-phosphate / glycerate / guanine / guanosine / inosine / pyruvate / sarcosine/alanine / succinate/methylmalonic acid / uridine / xanthosine: change in metabolite level after compound treatment; for D-sedoheptulose-1/7-phosphate: metabolite D-sedoheptulose-1/7-phosphate; for FAD: metabolite FAD; for GMP: metabolite GMP; for NAD+: metabolite NAD+; for NADP+: metabolite NADP+; for Octoluse Bisphosphate: metabolite Octoluse Bisphosphate; for Pyroglutamic acid: metabolite Pyroglutamic acid; for UDP-D-glucose: metabolite UDP-D-glucose; for UDP-D-glucuronate: metabolite UDP-D-glucuronate; for UDP-N-acetyl-glucosamine: metabolite UDP-N-acetyl-glucosamine; for UDP: metabolite UDP; for UMP: metabolite UMP; for UTP: metabolite UTP; for a-ketoglutarate: metabolite a-ketoglutarate; for citrate/isocitrate: metabolite citrate/isocitrate; for cytidine: metabolite cytidine; for dATP: metabolite dATP; for dGMP/AMP: metabolite dGMP/AMP; for fumarate: metabolite fumarate; for glucose-1/6-phosphate: metabolite glucose-1/6-phosphate; for glycerate: metabolite glycerate; for guanine: metabolite guanine; for guanosine: metabolite guanosine; for hypoxanthine: metabolite hypoxanthine; for indole: metabolite indole; for inosine: metabolite inosine; for 2_3-Diphosphoglyceric acid / 4-phosphopantothenate / 6-phospho-D-gluconate / FMN / IMP / Pyrophosphate / Sedoheptoluse bisphosphate / cyclic-AMP / glutathione disulfide / lactate / myo-inositol: metabolite level change after treatment; for nicotinate: metabolite nicotinate; for ornithine: metabolite ornithine; for phosphoenolpyruvate: metabolite phosphoenolpyruvate; for pyruvate: metabolite pyruvate; for ribose-phosphate: metabolite ribose-phosphate; for sarcosine/alanine: metabolite sarcosine/alanine; for sn-glycerol-3-phosphate: metabolite sn-glycerol-3-phosphate; for succinate/methylmalonic acid: metabolite succinate/methylmalonic acid; for uridine: metabolite uridine; for xanthosine: metabolite xanthosine
[5] = system: P. falciparum M17 aminopeptidase; set-up: method as in ref [23] (a number printed in a supplementary file, which may have a reference list of its own: not looked up in the article's list); settings: ref [23]; cited from earlier work
[6] = system: P. falciparum M1 aminopeptidase; set-up: method as in ref [23] (a number printed in a supplementary file, which may have a reference list of its own: not looked up in the article's list); settings: ref [23]; cited from earlier work
[7] = system: PfCDPK1, PfPK6, PfCK2, PfGSK3, PfCLK1, Pfmap2, PfPK7, PfNek2, PfNek4, FIKK4.2, FIKK10.2, PfCK1, PfPK5; experiment: Thermal Shift Assay on recombinant Pf kinases; format: binding, P. falciparum; settings: 2 µM kinase, 5 molar excess of compound

Cc1ccc(Nc2nc(-c3ccccn3)cs2)cc1 [MMV007907]
EC50 [1]: 281 nM | EC50 [2]: 350 nM | PPI inhibitors of Atg8-Atg3 interaction [3]: PPI inhibitors | Acetyllysine [4]: -0.3916 | N-acetyl-L-ornithine [4]: -0.2705 | N-carbamoyl-L-aspartate [4]: 0.4477 | NADPH [4]: 1.503 | dAMP [4]: -0.05008 | dCMP [4]: -0.3338 | dTDP [4]: -0.4245 | dTMP [4]: -0.5337 | dTTP [4]: 0.04887 | dihydroorotate [4]: 0.6541 | orotate [4]: 0.3803 | DLH [4]: -0.1443 | DLS/SDL/SID [4]: -0.03559 | PD [4]: -0.7075 | PEE [4]: -0.4235 | PVNF [4]: 0.2287 | 3-phosphoglycerate [4]: 0.2283 | ADP-D-glucose [4]: 0.03116 | ATP [4]: 0.08371 | CDP [4]: -0.4596 | D-sedoheptulose-1/7-phosphate [4]: -0.2275 | FAD [4]: 0.1798 | GMP [4]: 0.08425 | NAD+ [4]: 0.05427 | NADP+ [4]: -0.07684 | Octoluse Bisphosphate [4]: -0.09051 | Pyroglutamic acid [4]: 0.2079 | UDP-D-glucose [4]: -0.006173 | UDP-D-glucuronate [4]: 0.1137 | UDP-N-acetyl-glucosamine [4]: 0.001514 | UDP [4]: -0.4364 | UMP [4]: -0.7518 | UTP [4]: 0.01959 | a-ketoglutarate [4]: 0.135 | citrate/isocitrate [4]: 0.264 | cytidine [4]: 0.5859 | dATP [4]: -0.01819 | dGMP/AMP [4]: -0.2513 | fumarate [4]: -0.275 | glucose-1/6-phosphate [4]: -0.0724 | glycerate [4]: 0.1576 | guanine [4]: 0.3676 | guanosine [4]: 0.05893 | hypoxanthine [4]: 0.3977 | indole [4]: 0.3227 | inosine [4]: 0.344 | 2_3-Diphosphoglyceric acid [4]: -0.02223 | 4-phosphopantothenate [4]: 0.1153 | 6-phospho-D-gluconate [4]: 0.05128 | FMN [4]: 0.1654 | IMP [4]: -0.204 | Pyrophosphate [4]: 0.1304 | Sedoheptoluse bisphosphate [4]: -0.1099 | cyclic-AMP [4]: 0.1921 | glutathione disulfide [4]: -0.02789 | lactate [4]: 0.5292 | myo-inositol [4]: 0.004909 | nicotinate [4]: 0.3366 | ornithine [4]: 0.4059 | phosphoenolpyruvate [4]: 0.0562 | pyruvate [4]: 0.2612 | ribose-phosphate [4]: -0.06101 | sarcosine/alanine [4]: 0.3466 | sn-glycerol-3-phosphate [4]: 0.2394 | succinate/methylmalonic acid [4]: 0.03717 | uridine [4]: 0.4023 | xanthosine [4]: -0.2403

COc1cc(-c2nc(-c3ccccc3)c(-c3ccccc3)[nH]2)cc(OC)c1O [MMV020750]
inhibition of M17 in words [5]: moderate competitive inhibitors | inhibition of M1 in words [6]: moderate competitive inhibitors

Cc1cccc(-n2ncc3c(=O)[nH]c(-n4nc(C)cc4NC(=O)c4cc5ccccc5o4)nc32)c1 [MMV403679]
thermal shift (ΔTm) [7]: approximately 2 °C

O=C(Nc1ccc(Cl)c(Cl)c1)Nc1ccc(Cl)c(Cl)c1 [MMV665852]
thermal shift (ΔTm) [7]: approximately 2 °C

c1ccc(Cn2c(N=Nc3c(Nc4ccccc4)ccc4ccccc34)nc3ccccc32)cc1 [MMV666023]
EC50 [2]: 36.8 nM | Acetyllysine [4]: 0.5853 | N-acetyl-L-ornithine [4]: 0.306 | N-carbamoyl-L-aspartate [4]: 1.052 | NADPH [4]: -0.03386 | dAMP [4]: 0.6013 | dCMP [4]: -0.4205 | dTDP [4]: 0.3507 | dTMP [4]: 0.8714 | dTTP [4]: -0.2342 | dihydroorotate [4]: 1.31 | orotate [4]: -0.6227 | DLH [4]: -0.403 | DLS/SDL/SID [4]: -0.4178 | PD [4]: 0.5075 | PEE [4]: 0.08891 | PVNF [4]: -0.6731 | 3-phosphoglycerate [4]: 0.03204 | ADP-D-glucose [4]: -0.0135 | ATP [4]: -0.2499 | CDP [4]: 0.1136 | D-sedoheptulose-1/7-phosphate [4]: 0.2353 | FAD [4]: 0.06401 | GMP [4]: -0.6431 | NAD+ [4]: 0.6404 | NADP+ [4]: -0.009365 | Octoluse Bisphosphate [4]: -0.1419 | Pyroglutamic acid [4]: -0.07348 | UDP-D-glucose [4]: 0.05216 | UDP-D-glucuronate [4]: -0.02666 | UDP-N-acetyl-glucosamine [4]: 0.05509 | UDP [4]: 0.01697 | UMP [4]: -0.4292 | UTP [4]: -0.424 | a-ketoglutarate [4]: -0.06383 | citrate/isocitrate [4]: 0.04119 | cytidine [4]: 0.02473 | dATP [4]: 0.1105 | dGMP/AMP [4]: 0.2165 | fumarate [4]: 0.9246 | glucose-1/6-phosphate [4]: -0.4138 | glycerate [4]: 0.03697 | guanine [4]: -0.03399 | guanosine [4]: -0.2347 | hypoxanthine [4]: -0.04929 | indole [4]: 0.02614 | inosine [4]: -0.0248 | 2_3-Diphosphoglyceric acid [4]: 0.0759 | 4-phosphopantothenate [4]: 0.08574 | 6-phospho-D-gluconate [4]: 0.115 | FMN [4]: -0.1537 | IMP [4]: 0.4441 | Pyrophosphate [4]: 0.2082 | Sedoheptoluse bisphosphate [4]: 0.1996 | cyclic-AMP [4]: 0.01699 | glutathione disulfide [4]: 0.1273 | lactate [4]: -0.7178 | myo-inositol [4]: -0.07069 | nicotinate [4]: 0.08369 | ornithine [4]: 0.4536 | phosphoenolpyruvate [4]: -0.0645 | pyruvate [4]: -0.159 | ribose-phosphate [4]: -0.0332 | sarcosine/alanine [4]: -0.02978 | sn-glycerol-3-phosphate [4]: -0.2072 | succinate/methylmalonic acid [4]: 0.009689 | uridine [4]: -0.07701 | xanthosine [4]: -0.07995 | inhibition of M17 in words [5]: moderate competitive inhibitors | inhibition of M1 in words [6]: moderate competitive inhibitors
